Tests used:
[1] = test system: TNF-α; assay: Th1 cytokine (TNF-α) from splenocytes of inoculated mice re-stimulated with Aβ antigen; format: in vivo; conditions: for TNF-α: splenocytes of vaccinated mice, re-stimulated with Aβ antigen 72 hours
Description: (§1) The mice were inoculated with the vaccines prepared as described above. 6-week-old Balb/c mice were used in the experiment, and there were 4 mice per group. The mice were injected intramuscularly with the vaccines prepared containing PBS, Alum, S1P (EB101), P1P, cyclic P1P, and NAPS-1-P as described above. […] The vaccine candidates were inoculated twice at an interval of 3 weeks. PBS was used as a negative control without Aβ antigen, and S1P and Alum were used as control. Alum is an adjuvant used in vaccines and is known to induce a Th2 immune response, and thus was used as a positive control for the Th2 response, and S1P was used as a control for comparison of antibody producing-ability.
(§2) The spleen was removed from the mice inoculated as described above to obtain splenocytes. Red blood cells were lysed with 100 mM Tris buffer. The obtained splenocytes were washed twice with PBS and centrifuged at 1600 rpm for 5 minutes. […] The splenocytes thus obtained were re-stimulated with a constant amount of Aβ antigen for 72 hours.
(§3) Subsequently, Th1 cytokine (TNF-α) and Th2 cytokine (IL-4) secreted from the mouse splenocytes were subjected to an ELISpot assay using an ELISPOT (BD Pharmingen) kit according to the manufacturer's instructions. The number of colored spots was measured to compare the number of cytokine-secreting cells.

[2] = test system: Raw264.7 cells; assay: TNF-α production in LPS-stimulated macrophages (ELISA); format: cell-based, mouse; conditions: LPS 1 ng/mL; for Amount of TNF-α / inhibition at 0.01 µM / inhibition at 0.1 µM / inhibition at 0.5 µM / inhibition at 1 µM: 4 hours; for inhibition at 0.01 µM / inhibition at 0.1 µM / inhibition at 0.5 µM / inhibition at 1 µM: Mus musculus, RAW264.7, 4 h, read-out: Inhibition rate of TNF-α production
Description: Raw264.7 cells, which is a mouse macrophage cell line (Korean Cell Line Bank, cultured with RPMI 1640/10% fetal bovine serum) were seeded at 4.5×10^5/mL and cultured overnight, and then, treated with LPS (lipopolysaccharide) (1 ng/mL), and S1P and P1P diluted with a culture medium according to the concentrations ([…]). After culturing at 37° C. in a 5% CO2 incubator for 4 hours, the supernatant was collected and stored at 4° C. The concentration of TNF-α, an inflammatory cytokine secreted in the supernatant, was measured using an ELISA kit (BD OptEIA™ TNF Mouse set) according to the manufacturer's instructions. The culture medium was diluted by ¼ in all experimental groups except for the treated group, and the concentration was measured.

[3] = test system: Aβ antigen; assay: IgG isotyping (IgG1, IgG2a, IgG2b titer) in vaccinated mice; format: in vivo, Balb/c mice; conditions: blood collected at 4th week after the second vaccination
Description: as §1
In the fourth week, which was the last week, about 300 to 400 μl of blood was collected from the heart, and the serum components were separated by centrifugation at 1400 rpm for 10 minutes at room temperature. The antibody-forming ability in the serum was determined as follows:
The IgG isotyping was measured in the same manner as the total IgG measurement except that the following antibodies were used as secondary antibodies. For IgG1, IgG2a and IgG2b, anti-mouse IgG1, IgG2a or IgG2b conjugated to horseradish peroxidase (Boehringer Mannheim) were used.

[4] = test system: Aβ antigen; assay: Antibody-forming ability in vaccinated mice, total IgG titer (ELISA); format: in vivo, Balb/c mice; conditions: vaccine with Aβ antigen, intramuscular
Description: as §1
The antibody-forming ability in the serum was determined as follows:
A 96-well plate was coated with Aβ antigen (1 μg/mL) and reacted at room temperature overnight. Then, the solution in each well was removed and blocked with albumin. The primary antibody (the immune serum) was subjected to 2-fold dilution with the following composition solution (0.014 M sodium phosphate, pH 7.4, 0.15 M NaCl, 0.6% albumin, 0.05% thimerosal) and added to each well. After reacting at room temperature for about 1 hour, the antibodies were washed 5 times with PBS containing 0.05% Tween 20. Subsequently, a secondary antibody conjugated to horseradish peroxidase (goat mouse IgG conjugated to horseradish peroxidase, Boehringer Mannheim) was added and reacted at room temperature for 1 hour. After washing 5 times with PBS containing Tween, 100 μL of 3,3,5,5-tetramethyl benzidine (from Pierce Chemicals) was added for color development, and reacted at room temperature for 15 minutes. The color development reaction was terminated by adding sulfuric acid.

[5] = test system: IL-4; assay: Th2 cytokine (IL-4) from splenocytes of inoculated mice re-stimulated with Aβ antigen; format: in vivo; conditions: for IL-4: splenocytes of vaccinated mice, re-stimulated with Aβ antigen 72 hours
Description: as §1, §2, §3

[6] = test system: PC12 cell; assay: Protection against neuronal cell death induced by hydrogen peroxide (oxidative stress), Ez-Cytox viability; format: cell-based, Mouse; conditions: 100 nM, 350 μM hydrogen peroxide (about 90% of nerve cells killed without treatment)
Description: PC12 cell line (KCLB 21721, Korea Cell Line Bank, Seoul, Korea) was used to test the effect of P1P and the antibodies on the neuronal cell death caused by hydrogen peroxide and Aβ. The PC12 cells were cultured in RPMI 1640 medium containing 10% fetal bovine serum and 1% penicillin/streptomycin at 37° C. in a 5% CO2 incubator.
After culturing the cells for 24 hours, P1P, cyclic P1P and NAPS-1-P dissolved in DMSO to a concentration of 2 mM were diluted and added to the medium such that the concentrations were 10 nM, 100 nM and 1000 nM. After culturing for 1 hour, 350 μM of H2O2 was added to […] and cultured. Subsequently, in order to measure cell viability, the absorbance was measured at 450 nm using Ez-Cytox (Dogen) after 6 hours, and the efficacy of P1P and derivatives thereof against oxidative stress was measured. The cell death induced by Aβ was initiated by treating 10 μM of Aβ instead of 350 μM of hydrogen peroxide, and the efficacy of P1P and the antibodies against the cell death induced by Aβ was measured using Ez-Cytox after 24 hours.

[7] = 2 weeks after secondary inoculation
[8] = 3 weeks after primary inoculation
[9] = 4 weeks after secondary inoculation

| Compound | TNF-α [1] | Amount of TNF-α ([2]; 10 nM) | Amount of TNF-α ([2]; 100 nM) | Amount of TNF-α ([2]; 500 nM) | Amount of TNF-α ([2]; 1000 nM) | inhibition at 0.01 µM ([2]; 10 nM) | inhibition at 0.1 µM ([2]; 100 nM) | inhibition at 0.5 µM ([2]; 500 nM) | inhibition at 1 µM ([2]; 1000 nM) | IgG1 Average Antibody Titer [3] | IgG2a Average Antibody Titer [3] | IgG2b Average Antibody Titer [3] | Average Antibody Titer [4, 7] | Average Antibody Titer [4, 8] | Average Antibody Titer [4, 9] | IL-4 [5] | neuronal cell death induced by hydrogen peroxide [6] | Average Antibody Titer ([4]; Before inoculation) | also measured |
| --- | --- | --- | --- | --- | --- | --- | --- | --- | --- | --- | --- | --- | --- | --- | --- | --- | --- | --- | --- |
| CCCCCCCCCCCCCC[C@@H](O)[C@@H](O)[C@H](COP(=O)(O)O)NC(C)=O [NAPS-1-P, N-acetyl phytosphingosine-1-phosphate] | 40.4 ± 15.52 pg/mL | 15000 pg/mL | 15200 pg/mL | 12200 pg/mL | 10000 pg/mL | -4.2% | -4.2% | 15.3% | 30.6% | 1700 ± 600 | 0 | 0 | 5600 ± 2000 | 84 ± 50 | 5600 ± 2000 | 11.04 ± 0.78 pg/mL | the nerve cells were not killed | – | – |
| CCCCCCCCCCCCC/C=C/[C@@H](O)[C@@H](N)COP(=O)(O)O [S1P, sphingosine-1-phosphate] | 36.25 ± 20.15 pg/mL | 15000 pg/mL | 13880 pg/mL | 12700 pg/mL | 116600 pg/mL | -4.2% | -4.2% | 11.8% | ~19% | 1200 ± 430 | 0 | 0 | 4000 ± 1500 | 140 ± 80 | 4800 ± 2000 | 11.84 ± 2.25 pg/mL | – | 0 | increase in TNF-α, statistical significance ([1]; splenocytes of immunized mice): did not show a statistically significant increase; secretion of TNF-α, trend with concentration [2]: tended to decrease slightly in a concentration-dependent manner; increase in IL-4, statistical significance ([5]; splenocytes of immunized mice): statistically significant increase |
| CCCCCCCCCCCCCC[C@@H](O)[C@H]1OP(=O)(O)OC[C@@H]1N [CP1P, O-cyclic P1P] | 42.9 ± 15.52 pg/mL | 10600 pg/mL | 7800 pg/mL | 7500 pg/mL | 7550 pg/mL | 26.3% | 26.3% | 47.9% | 47.5% | 6100 ± 2100 | 0 | 0 | 11000 ± 2500 | 140 ± 50 | 9000 ± 2000 | 12.06 ± 1.25 pg/mL | the nerve cells were not killed | 0 | – |
